Results on 1 compound are retold here after patent US20230085307A1, “PYRIDAZINONE COMPOUND AND HERBICIDE” (NISSAN CHEMICAL CORPORATION, priority 2019, published 2023).

Assay [1] concerns late watergrass. In words: Test Example 1: herbicidal activity, application before weed generation under submerged conditions (Table 16, symbol A). It counts as in vivo, late watergrass (Echinochloa oryzicola). The following applies: amount of applied herbicide 214 g/ha. In a few lines: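 Submerged Wagner pots (alluvial soil, 4 cm water) sown with weed seeds and planted with 2.5-leaf rice seedlings; emulsifiable concentrate diluted in water applied to water surface on sowing day. Held in greenhouse at 25-30 °C; injury scored 0-5 by herbicidal rate after three weeks.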

For assay [2], the system named is late watergrass. In words: Test Example 2: herbicidal activity, application during weed generation under submerged conditions (Table 17, symbol A). It counts as in vivo, late watergrass (Echinochloa oryzicola). The following applies: AAH 214 g/ha; application during weed generation, submerged conditions. In short, it runs like this:
(§1)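 Herbicide emulsion, diluted with water to the chosen amount, is applied onto 4 cm floodwater over alluvial soil where the weeds were co-sown and raised at 25–30° C. Application timing: 1–2 leaves. Assessment: three weeks afterwards.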

A further assay relates to oval-leafed pondweed. In words: Test Example 2: herbicidal activity, application during weed generation under submerged conditions (Table 17, symbol C). It is filed as in vivo, oval-leafed pondweed (Monochoria vaginalis). The following applies: AAH 214 g/ha; application during weed generation, submerged conditions. In a few lines: as §1
Assay [3] deals with barnyard grass. The experiment in a line: Test Example 3: herbicidal effect by foliage application, Wagner pot (Table 18, symbol H). It is filed as in vivo, barnyard grass (Echinochloa crus-galli). The following applies: 214 g/ha. In short, it runs like this: (§2)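 Plants were sown in alluvial soil held under 0.1–0.5 cm standing water and grown 14 days in a greenhouse at 25–30 °C. An emulsifiable formulation, water-diluted to the set dose, was then sprayed onto the foliage, and effects were scored three weeks later using previously defined criteria.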

The subject of a further assay is Chinese sprangletop. In words: Test Example 3: herbicidal effect by foliage application, Wagner pot (Table 18, symbol D). It counts as in vivo, chinese sprangletop (Leptochloa chinensis). The following applies: 214 g/ha. In a few lines: as §2
Assay [4] relates to green foxtail. In words: Test Example 4: herbicidal effect by soil treatment (Table 19, symbol G). It counts as in vivo, green foxtail (Setaria viridis). The following applies: amount of applied herbicide 214 g/ha. In a few lines: (§3)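 Applied as a water-diluted emulsion, the compound was sprayed onto soil covering newly sown seeds. Evaluation came three weeks after application, in a greenhouse held at 25° C. to 30° C.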

The subject of assay [5] is windgrass. The experiment in a line: Test Example 4: herbicidal effect by soil treatment (Table 19, symbol L). It counts as in vivo, windgrass (Apera spica-venti). The following applies: amount of applied herbicide 214 g/ha. In a few lines:
as §3

The subject of assay [6] is velvetleaf. The experiment in a line: Test Example 4: herbicidal effect by soil treatment (Table 19, symbol M). It counts as in vivo, velvetleaf (Abutilon theophrasti). The following applies: amount of applied herbicide 214 g/ha. In short, it runs like this:
as §3

Assay [7] concerns redroot pigweed. In words: Test Example 4: herbicidal effect by soil treatment (Table 19, symbol N). It counts as in vivo, redroot pigweed (Amaranthus retroflexus). The following applies: amount of applied herbicide 214 g/ha. In short, it runs like this: as §3
For another assay, the system named is false cleavers. In words: Test Example 4: herbicidal effect by soil treatment (Table 19, symbol Q). It is filed as in vivo, false cleavers (Galium spurium). The following applies: amount of applied herbicide 214 g/ha. In short, it runs like this: as §3
Assay [8] concerns green foxtail. In words: Test Example 5: herbicidal effect by foliage application, plastic box (Table 20, symbol G). It is filed as in vivo, green foxtail (Setaria viridis). The following applies: foliage application, 214 g/ha, three weeks after application. In short, it runs like this:
(§4)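 Sow seeds spot-wise in sterilized diluvial soil; cover with ~1.5 cm soil. Grow 14 days in greenhouse, 25° C. to 30° C. Spray foliage with emulsion diluted to predetermined amount. Rate effect after 3 weeks.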

Assay [9] relates to barnyard grass. In words: Test Example 5: herbicidal effect by foliage application, plastic box (Table 20, symbol H). The following applies: foliage application, 214 g/ha, three weeks after application. It counts as in vivo, barnyard grass (Echinochloa crus-galli). In a few lines:
as §4

The subject of a further assay is wild oat. In words: Test Example 5: herbicidal effect by foliage application, plastic box (Table 20, symbol I). The following applies: foliage application, 214 g/ha, three weeks after application. It is filed as in vivo, wild oat (Avena fatua). In a few lines:
as §4

In assay [10] the test system is windgrass. In words: Test Example 5: herbicidal effect by foliage application, plastic box (Table 20, symbol L). It counts as in vivo, windgrass (Apera spica-venti). The following applies: foliage application, 214 g/ha, three weeks after application. In short, it runs like this: as §4
Assay [11] deals with velvetleaf. In words: Test Example 5: herbicidal effect by foliage application, plastic box (Table 20, symbol M). The following applies: foliage application, 214 g/ha, three weeks after application. It is filed as in vivo, velvetleaf (Abutilon theophrasti). In short, it runs like this:
as §4

Assay [12] deals with redroot pigweed. The experiment in a line: Test Example 5: herbicidal effect by foliage application, plastic box (Table 20, symbol N). It counts as in vivo, redroot pigweed (Amaranthus retroflexus). The following applies: foliage application, 214 g/ha, three weeks after application. In a few lines: as §4
In the next assay the test system is lambsquarters. In words: Test Example 5: herbicidal effect by foliage application, plastic box (Table 20, symbol O). It counts as in vivo, lambsquarters (Chenopodium album). The following applies: foliage application, 214 g/ha, three weeks after application. In short, it runs like this: as §4

For `COc1ccc2c(-c3c(O)c(C)nn(C)c3=O)c(-c3ccccc3OC)sc2c1` [Compound No. 3-065, 5-hydroxy-4-(6-methoxy-2-(2-methoxyphenyl)benzo[b]thiophen-3-yl)-2,6-dimethylpyridazin-3(2H)-one], the “Herbicidal effect, A: late watergrass” value with late watergrass [1] was 1 (Herbicidal rate of 5% or more and less than 20%). Further, the “herbicidal effect rating, A: late watergrass” value in the assay on late watergrass [2] was 0 (Herbicidal rate of 5% or less (almost no effect)). In addition, the “herbicidal effect rating, C: oval-leafed pondweed” value in the assay on oval-leafed pondweed is 3 (Herbicidal rate of 40% or more and less than 70%). In addition, the “herbicidal effect on barnyard grass (H)” value with barnyard grass [3] was 5 (Herbicidal rate of 90% or more (almost completely withered)). Moreover, the “herbicidal effect on Chinese sprangletop (D)” value in the assay with Chinese sprangletop is 2 (Herbicidal rate of 20% or more and less than 40%). The “G: green foxtail, herbicidal effect grade” value in the assay with green foxtail [4] and in the assay on green foxtail [8] was 5 (Herbicidal rate of 90% or more (almost completely withered)) throughout. Besides, the “L: windgrass, herbicidal effect grade” value was 3 (Herbicidal rate of 40% or more and less than 70%) in the assay on windgrass [5]; 4 (Herbicidal rate of 70% or more and less than 90%) with windgrass [10]. Also, the results for the “M: velvetleaf, herbicidal effect grade” value with velvetleaf [6] and with velvetleaf [11] were 0 (Herbicidal rate of 5% or less (almost no effect)) and 5 (Herbicidal rate of 90% or more (almost completely withered)), respectively. For the same compound, the “N: redroot pigweed, herbicidal effect grade” value was 4 (Herbicidal rate of 70% or more and less than 90%) in the assay with redroot pigweed [7]; 3 (Herbicidal rate of 40% or more and less than 70%) in the assay on redroot pigweed [12]. Moreover, in the assay with false cleavers, the “Q: false cleavers, herbicidal effect grade” value is 4 (Herbicidal rate of 70% or more and less than 90%). Besides, in the assay with barnyard grass [9], the “H: barnyard grass, herbicidal effect grade” value is given as 5 (Herbicidal rate of 90% or more (almost completely withered)). Besides, in the assay with wild oat, the “I: wild oat, herbicidal effect grade” value is 4 (Herbicidal rate of 70% or more and less than 90%). The “O: lambsquarters, herbicidal effect grade” value in the assay with lambsquarters was 3 (Herbicidal rate of 40% or more and less than 70%).
